Experimental data published in publication PMC6691788, “Design and synthesis of phthalazine-based compounds as potent anticancer agents with potential antiangiogenic activity via VEGFR-2 inhibition” (Journal of Enzyme Inhibition and Medicinal Chemistry, 2019).

Legend:
SK-OV-3 = assay: NCI 60 cell panel SRB screen; format: cell-based; settings: Homo sapiens; for GI50 / IC (TGI) / CC50: SK-OV-3, 5 log dose; for CC50: 48 h, read-out: LC50 (the source's name); for activity at 10 µM: SK-OV-3, single dose 10 μM, read-out: percent cell growth promotion
MOLT-4 = assay: NCI 60 cell panel SRB screen; format: cell-based; settings: Homo sapiens; for GI50 / IC (TGI) / CC50: MOLT-4, 5 log dose; for CC50: 48 h, read-out: LC50 (the source's name); for activity at 10 µM: MOLT-4, single dose 10 μM, read-out: percent cell growth promotion
NCI-H322M = assay: NCI 60 cell panel SRB screen; format: cell-based; settings: Homo sapiens; for GI50 / IC (TGI) / CC50: 5 log dose; for CC50: 48 h, read-out: LC50 (the source's name); for activity at 10 µM: single dose 10 μM, read-out: percent cell growth promotion
MCF7 = assay: NCI 60 cell panel SRB screen; format: cell-based; settings: Homo sapiens; for GI50: MCF7; for IC (TGI): MCF7, read-out: TGI; for activity at 10 µM: MCF7, read-out: percent cell growth promotion; for CC50: MCF7, 5 log dose, 48 h, read-out: LC50 (the source's name)
SF-268 = assay: NCI 60 cell panel SRB screen; format: cell-based; settings: Homo sapiens; for GI50 / IC (TGI) / CC50: SF-268, 5 log dose; for CC50: 48 h, read-out: LC50 (the source's name); for activity at 10 µM: SF-268, single dose 10 μM, read-out: percent cell growth promotion
SN12C = assay: NCI 60 cell panel SRB screen; format: cell-based; settings: Homo sapiens; for GI50 / IC (TGI) / CC50: 5 log dose; for CC50: 48 h, read-out: LC50 (the source's name); for activity at 10 µM: single dose 10 μM, read-out: percent cell growth promotion
SF-295 = assay: NCI 60 cell panel SRB screen; format: cell-based; settings: Homo sapiens; for GI50 / IC (TGI) / CC50: SF-295, 5 log dose; for CC50: 48 h, read-out: LC50 (the source's name); for activity at 10 µM: SF-295, single dose 10 μM, read-out: percent cell growth promotion
MDA-MB-435 = assay: NCI 60 cell panel SRB screen; format: cell-based; settings: Homo sapiens; for GI50: MDA-MB-435; for IC (TGI): MDA-MB-435, read-out: TGI; for activity at 10 µM: MDA-MB-435, read-out: percent cell growth promotion; for CC50: MDA-MB-435, 5 log dose, 48 h, read-out: LC50 (the source's name)
ACHN = assay: NCI 60 cell panel SRB screen; format: cell-based; settings: Homo sapiens; for GI50 / IC (TGI) / CC50: 5 log dose; for CC50: 48 h, read-out: LC50 (the source's name); for activity at 10 µM: single dose 10 μM, read-out: percent cell growth promotion
NCI/ADR-RES = assay: NCI 60 cell panel SRB screen; format: cell-based; settings: Homo sapiens; for GI50 / IC (TGI) / CC50: 5 log dose; for CC50: 48 h, read-out: LC50 (the source's name); for activity at 10 µM: single dose 10 μM, read-out: percent cell growth promotion
NCI-H23 = assay: NCI 60 cell panel SRB screen; format: cell-based; settings: Homo sapiens; for GI50 / IC (TGI) / CC50: NCI-H23, 5 log dose; for CC50: 48 h, read-out: LC50 (the source's name); for activity at 10 µM: NCI-H23, single dose 10 μM, read-out: percent cell growth promotion
U251 = assay: NCI 60 cell panel SRB screen; format: cell-based; settings: Homo sapiens, U-251; for GI50 / IC (TGI) / CC50: U251, 5 log dose; for CC50: 48 h, read-out: LC50 (the source's name); for activity at 10 µM: U251, single dose 10 μM, read-out: percent cell growth promotion
A549/ATCC = assay: NCI 60 cell panel SRB screen; format: cell-based; settings: Homo sapiens; for GI50 / IC (TGI) / LC50 (concentration killing 50% of cells): 5 log dose; for LC50 (concentration killing 50% of cells): 48 h; for activity at 10 µM: single dose 10 μM, read-out: percent cell growth promotion
K-562 = assay: NCI 60 cell panel SRB screen; format: cell-based; settings: Homo sapiens, K562; for GI50 / IC (TGI) / CC50: K-562, 5 log dose; for CC50: 48 h, read-out: LC50 (the source's name); for activity at 10 µM: K-562, single dose 10 μM, read-out: percent cell growth promotion
HOP-92 = assay: NCI 60 cell panel SRB screen; format: cell-based; settings: Homo sapiens; for GI50 / IC (TGI) / CC50: HOP-92, 5 log dose; for CC50: 48 h, read-out: LC50 (the source's name); for activity at 10 µM: HOP-92, single dose 10 μM, read-out: percent cell growth promotion
UO-31 = assay: NCI 60 cell panel SRB screen; format: cell-based; settings: Homo sapiens; for GI50 / IC (TGI) / CC50: UO-31, 5 log dose; for CC50: 48 h, read-out: LC50 (the source's name); for activity at 10 µM: UO-31, single dose 10 μM, read-out: percent cell growth promotion
RPMI-8226 = assay: NCI 60 cell panel SRB screen; format: cell-based; settings: Homo sapiens; for GI50 / IC (TGI) / CC50: RPMI-8226, 5 log dose; for CC50: 48 h, read-out: LC50 (the source's name); for activity at 10 µM: RPMI-8226, single dose 10 μM, read-out: percent cell growth promotion
NCI-H522 = assay: NCI 60 cell panel SRB screen; format: cell-based; settings: Homo sapiens; for GI50 / IC (TGI) / CC50: NCI-H522, 5 log dose; for CC50: 48 h, read-out: LC50 (the source's name); for activity at 10 µM: NCI-H522, single dose 10 μM, read-out: percent cell growth promotion
UACC-257 = assay: NCI 60 cell panel SRB screen; format: cell-based; settings: Homo sapiens; for GI50: UACC-257; for IC (TGI): UACC-257, read-out: TGI; for activity at 10 µM: UACC-257, read-out: percent cell growth promotion
VEGFR-2 tyrosine kinase = biological target: T1, VEGFR-2 tyrosine kinase (Homo sapiens, UniProt P35968); assay: In vitro VEGFR-2 tyrosine kinase assay (BPS Bioscience); format: biochemical; settings: read-out: VEGFR-2 % inhibition; 10 μM concentration
T1 construct: purchased BPS Bioscience 40301
T1 sequence (P35968 20-1356): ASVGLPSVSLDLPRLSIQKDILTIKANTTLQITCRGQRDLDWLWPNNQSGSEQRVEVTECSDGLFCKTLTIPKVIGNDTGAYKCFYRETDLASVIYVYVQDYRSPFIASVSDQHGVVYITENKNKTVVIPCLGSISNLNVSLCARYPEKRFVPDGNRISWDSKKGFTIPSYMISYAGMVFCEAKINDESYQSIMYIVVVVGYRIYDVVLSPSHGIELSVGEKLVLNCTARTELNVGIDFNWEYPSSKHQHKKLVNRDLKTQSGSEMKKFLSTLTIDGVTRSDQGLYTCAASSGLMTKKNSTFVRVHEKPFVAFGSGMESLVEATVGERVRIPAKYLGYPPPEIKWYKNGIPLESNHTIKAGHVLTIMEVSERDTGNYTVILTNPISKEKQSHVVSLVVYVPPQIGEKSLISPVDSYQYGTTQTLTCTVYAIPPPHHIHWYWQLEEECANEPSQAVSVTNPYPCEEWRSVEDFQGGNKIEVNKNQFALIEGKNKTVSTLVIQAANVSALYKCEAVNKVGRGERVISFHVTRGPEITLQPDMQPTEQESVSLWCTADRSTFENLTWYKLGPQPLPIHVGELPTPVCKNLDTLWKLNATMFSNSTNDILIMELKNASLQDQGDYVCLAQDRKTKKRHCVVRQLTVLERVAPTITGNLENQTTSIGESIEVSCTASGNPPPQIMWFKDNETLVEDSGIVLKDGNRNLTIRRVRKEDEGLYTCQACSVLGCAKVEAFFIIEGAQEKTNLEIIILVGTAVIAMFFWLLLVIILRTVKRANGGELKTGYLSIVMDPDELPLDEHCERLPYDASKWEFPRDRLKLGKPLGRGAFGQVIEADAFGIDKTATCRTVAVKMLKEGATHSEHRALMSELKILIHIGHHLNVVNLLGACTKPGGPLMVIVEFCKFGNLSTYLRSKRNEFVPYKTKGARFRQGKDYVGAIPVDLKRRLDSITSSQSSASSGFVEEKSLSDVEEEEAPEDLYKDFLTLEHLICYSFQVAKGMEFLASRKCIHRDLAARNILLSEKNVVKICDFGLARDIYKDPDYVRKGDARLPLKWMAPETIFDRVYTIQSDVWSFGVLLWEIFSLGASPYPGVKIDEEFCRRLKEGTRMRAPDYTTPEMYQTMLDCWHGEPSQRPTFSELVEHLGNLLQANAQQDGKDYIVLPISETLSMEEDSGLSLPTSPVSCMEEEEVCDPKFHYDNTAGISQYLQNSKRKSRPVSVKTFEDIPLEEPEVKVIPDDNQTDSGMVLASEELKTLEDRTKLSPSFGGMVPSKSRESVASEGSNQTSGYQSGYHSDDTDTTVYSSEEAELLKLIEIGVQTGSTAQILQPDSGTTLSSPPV
How it was run: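 Single-point screen at 10 µM: recombinant VEGFR with poly(Glu,Tyr) 0.2 mg/ml, 10 μM ATP, Tris pH 7.4, MgCl2, BSA, 1% DMSO, 40 min at 30 °C; residual ATP read by Kinase-Glo Plus luminescence.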

## Clc1ccc(Nc2nnc(COc3ccccc3)c3ccccc23)cc1 [Compound 17a, N-(4-Chlorophenyl)-4-(phenoxymethyl)phthalazin-1-amine]
SK-OV-3
  GI50: 2.38 µM
  IC (TGI): 9.96 µM
  CC50: > 25 µM
  activity at 10 µM: 9.17%
MOLT-4
  GI50: 1.06 µM
  IC (TGI): 6.7 µM
  CC50: > 25 µM
  activity at 10 µM: -32.6%
NCI-H322M
  GI50: 1.56 µM
  IC (TGI): 8.2 µM
  CC50: > 25 µM
  activity at 10 µM: 21.1%
MCF7
  GI50: 1.18 µM
  IC (TGI): 6.07 µM
  activity at 10 µM: 1.31%
  CC50: 19.8 µM
SF-268
  GI50: 2.23 µM
  IC (TGI): 12.9 µM
  CC50: > 25 µM
  activity at 10 µM: 13.2%
SN12C
  GI50: 2.12 µM
  IC (TGI): 8.07 µM
  CC50: > 25 µM
  activity at 10 µM: 17%
SF-295
  GI50: 1.65 µM
  IC (TGI): 6.7 µM
  CC50: 20.5 µM
  activity at 10 µM: -1.11%
MDA-MB-435
  GI50: 1.01 µM
  IC (TGI): 5.31 µM
  activity at 10 µM: -3.33%
  CC50: 16.2 µM
ACHN
  GI50: 2.35 µM
  IC (TGI): > 25 µM
  CC50: > 25 µM
  activity at 10 µM: 3.37%
NCI/ADR-RES
  GI50: 2.62 µM
  IC (TGI): 16.6 µM
  CC50: > 25 µM
  activity at 10 µM: -1.13%
NCI-H23
  GI50: 1.56 µM
  IC (TGI): 7.87 µM
  CC50: > 25 µM
  activity at 10 µM: 4.18%
U251
  GI50: 1.24 µM
  IC (TGI): 7.47 µM
  CC50: 19.1 µM
  activity at 10 µM: -12.7%
A549/ATCC
  GI50: 2.87 µM
  IC (TGI): 12.3 µM
  LC50 (concentration killing 50% of cells): > 25 µM
  activity at 10 µM: 4.64%
K-562
  GI50: 1.85 µM
  IC (TGI): 11.9 µM
  CC50: > 25 µM
  activity at 10 µM: 2.77%
HOP-92
  GI50: 0.33 µM
  IC (TGI): 3.09 µM
  CC50: > 25 µM
  activity at 10 µM: -28%
UO-31
  GI50: 0.72 µM
  IC (TGI): 5.2 µM
  CC50: 23.9 µM
  activity at 10 µM: -12.3%
RPMI-8226
  GI50: 1.37 µM
  IC (TGI): 6.96 µM
  CC50: > 25 µM
  activity at 10 µM: -25.3%
NCI-H522
  GI50: 0.35 µM
  IC (TGI): 4.04 µM
  CC50: 16.7 µM
  activity at 10 µM: -17.4%
UACC-257
  GI50: 2.54 µM
  IC (TGI): 5.82 µM
  activity at 10 µM: -24.9%
UACC-257; UACC-257, 5 log dose, 48 h, read-out: LC50 (the source's name)
  CC50: 13.4 µM
VEGFR-2 tyrosine kinase
  inhibition at 10 µM: 31%

## Cc1nnc(Nc2ccc(NC(=O)Nc3ccc(Cl)cc3)cc2)c2ccccc12 [Compound 6e, 1–(4-Chlorophenyl)-3–(4-(4-methylphthalazin-1-ylamino)phenyl)urea]
SK-OV-3
  GI50: 2.61 µM
  IC (TGI): 6.59 µM
  CC50: 30.7 µM
  activity at 10 µM: 66.4%
MOLT-4
  GI50: 2.36 µM
  IC (TGI): 6 µM
  CC50: > 100 µM
  activity at 10 µM: 9.76%
NCI-H322M
  GI50: 3.31 µM
  IC (TGI): 1.25 µM
  CC50: 69.5 µM
  activity at 10 µM: 47.8%
MCF7
  GI50: 2.21 µM
  IC (TGI): 10.9 µM
  activity at 10 µM: 24.9%
  CC50: 68.7 µM
SF-268
  GI50: 2.57 µM
  IC (TGI): 7.17 µM
  CC50: 47 µM
  activity at 10 µM: 48.7%
SN12C
  GI50: 2.86 µM
  IC (TGI): 9.41 µM
  CC50: 60.1 µM
  activity at 10 µM: 60.1%
SF-295
  GI50: 2.04 µM
  IC (TGI): 4.21 µM
  CC50: 8.68 µM
  activity at 10 µM: 4.8%
MDA-MB-435
  GI50: 1.73 µM
  IC (TGI): 3.43 µM
  activity at 10 µM: -40%
  CC50: 6.81 µM
ACHN
  GI50: 1.84 µM
  IC (TGI): 3.69 µM
  CC50: 7.41 µM
  activity at 10 µM: 58.8%
NCI/ADR-RES
  GI50: 3.63 µM
  IC (TGI): 14.9 µM
  CC50: > 100 µM
  activity at 10 µM: 45.1%
NCI-H23
  GI50: 2.38 µM
  IC (TGI): 6.31 µM
  CC50: 40.9 µM
  activity at 10 µM: 48.8%
U251
  GI50: 1.98 µM
  IC (TGI): 3.75 µM
  CC50: 7.07 µM
  activity at 10 µM: 5.4%
A549/ATCC
  GI50: 3.24 µM
  IC (TGI): 8.59 µM
  LC50 (concentration killing 50% of cells): 37.9 µM
  activity at 10 µM: 26.4%
K-562
  GI50: 2.2 µM
  IC (TGI): 4.67 µM
  CC50: 9.92 µM
  activity at 10 µM: -16.7%
HOP-92
  GI50: 2.56 µM
  IC (TGI): 6.6 µM
  CC50: 42 µM
  activity at 10 µM: 4.62%
UO-31
  GI50: 2.14 µM
  IC (TGI): 6.01 µM
  CC50: 31.8 µM
  activity at 10 µM: 51.2%
RPMI-8226
  GI50: 2.6 µM
  IC (TGI): 6.48 µM
  CC50: > 100 µM
  activity at 10 µM: -11.9%
NCI-H522
  GI50: 1.84 µM
  IC (TGI): 3.88 µM
  CC50: 8.21 µM
  activity at 10 µM: 30.3%
UACC-257
  GI50: 2.39 µM
  IC (TGI): 5.3 µM
  activity at 10 µM: 73.8%
VEGFR-2 tyrosine kinase
  inhibition at 10 µM: 19%
